In ChEMBL document CHEMBL2417497, “Lead identification of novel and selective TYK2 inhibitors” (Eur J Med Chem, 2013):
Values after ≈ are worked out from the molar mass of the structure shown.

Assays:
[1] = in vitro; settings: plasma
[2] = physchem; settings: aqueous, pH 7.4
[3] = physchem; settings: octanol/aqueous phosphate buffered saline, pH 7.4
[4] = in vivo; settings: Sprague-Dawley, rat, po, 5 mg/kg
[5] = in vivo; settings: mouse, po, 5 mg/kg
[6] = in vivo; settings: Sprague-Dawley, rat, po, 5 mg/kg; remark: listed apart in the source
[7] = in vitro; settings: mouse, plasma
[8] = in vitro; settings: rat, plasma
[9] = in vitro; settings: human, plasma

Row | fraction unbound [1] | solubility [2] [µg/mL] | logD at 1 h [3] | bioavailability [4] [%] | Cmax [5] [nM] | Cmax [6] [nM] | fraction unbound [7] | fraction unbound [8] | fraction unbound [9] | Structure (SMILES)
1 | 0.3 | 630 (≈ 2360 µM) | 2.2 |  |  |  |  |  |  | O=C(Nc1ccncc1)c1c(Cl)cccc1Cl
2 |  |  |  | 105 | 1600 | 2500 | 0.04 | 0.04 | 0.05 | O=C(Nc1ccnc(NC(=O)C2CC2)c1)c1c(Cl)cccc1Cl
